Data taken from ChEMBL document CHEMBL3244338, “Antineoplastic agents. Structure-activity relationship study of bis(substituted aminoalkylamino)anthraquinones” (J Med Chem, 1978).
Active and inactive are the calls of the source. No cut-off for these calls is given here.

Experiments:
Mus musculus [1] = assay: Toxicity in mouse P388 cells allografted BDF1 mouse assessed as body weight difference at 8 mg/kg administered 24 hrs post challenge relative to control; format: organism-based; design: dose 8 mg/kg; conditions: in vivo
Mus musculus [2] = assay: Toxicity in mouse P388 cells allografted BDF1 mouse assessed as body weight difference at 4 mg/kg administered 24 hrs post challenge relative to control; format: organism-based; design: dose 4 mg/kg; conditions: in vivo
Mus musculus [3] = assay: Toxicity in mouse P388 cells allografted BDF1 mouse assessed as body weight difference at 32 mg/kg administered 24 hrs post challenge relative to control; format: organism-based; design: dose 32 mg/kg; conditions: in vivo
Mus musculus [4] = assay: Toxicity in mouse P388 cells allografted BDF1 mouse assessed as body weight difference at 16 mg/kg administered 24 hrs post challenge relative to control; format: organism-based; design: dose 16 mg/kg; conditions: in vivo
L1210 [5] = assay: Antitumor activity against mouse L1210 cells allografted in BDF1 mouse assessed as increase in survival time at 12.5 mg/kg administered 24 hrs post challenge relative to control; format: functional
P388 [6] = assay: Antitumor activity against mouse P388 cells allografted in BDF1 mouse assessed as increase in survival time at 16 mg/kg administered 24 hrs post challenge relative to control; format: functional
P388 [7] = assay: Antitumor activity against mouse P388 cells allografted in BDF1 mouse assessed as mouse survival at 8 mg/kg administered 24 hrs post challenge relative to control; format: functional, organism-based; design: dose 8 mg/kg
P388 [8] = assay: Antitumor activity against mouse P388 cells allografted in BDF1 mouse assessed as increase in survival time at 32 mg/kg administered 24 hrs post challenge relative to control; format: functional
L1210 [9] = assay: Antitumor activity against mouse L1210 cells allografted in BDF1 mouse assessed as increase in survival time at 25 mg/kg administered 24 hrs post challenge relative to control; format: functional
P388 [10] = assay: Antitumor activity against mouse P388 cells allografted in BDF1 mouse assessed as increase in survival time at 8 mg/kg administered 24 hrs post challenge relative to control; format: functional
P388 [11] = assay: Antitumor activity against mouse P388 cells allografted in BDF1 mouse assessed as mouse survival at 32 mg/kg administered 24 hrs post challenge relative to control; format: functional, organism-based; design: dose 32 mg/kg
P388 [12] = assay: Antitumor activity against mouse P388 cells allografted in BDF1 mouse assessed as increase in survival time at 4 mg/kg administered 24 hrs post challenge relative to control; format: functional
L1210 [13] = assay: Antitumor activity against mouse L1210 cells allografted in BDF1 mouse assessed as increase in survival time at 6.25 mg/kg administered 24 hrs post challenge relative to control; format: functional
P388 [14] = assay: Antitumor activity against mouse P388 cells allografted in BDF1 mouse assessed as mouse survival at 4 mg/kg administered 24 hrs post challenge relative to control; format: functional, organism-based; design: dose 4 mg/kg
P388 [15] = assay: Antitumor activity against mouse P388 cells allografted in BDF1 mouse assessed as mouse survival at 16 mg/kg administered 24 hrs post challenge relative to control; format: functional, organism-based; design: dose 16 mg/kg
P388 [16] = assay: Antitumor activity against mouse P388 cells allografted in BDF1 mouse assessed as mouse survival at 3.13 mg/kg administered 24 hrs post challenge relative to control; format: functional, organism-based; design: dose 3.13 mg/kg
P388 [17] = assay: Antitumor activity against mouse P388 cells allografted in BDF1 mouse assessed as increase in survival time at 3.13 mg/kg administered 24 hrs post challenge relative to control; format: functional
P388 [18] = assay: Antitumor activity against mouse P388 cells allografted in BDF1 mouse assessed as increase in survival time at 0.78 mg/kg administered 24 hrs post challenge relative to control; format: functional
P388 [19] = assay: Antitumor activity against mouse P388 cells allografted in BDF1 mouse assessed as increase in survival time at 6.25 mg/kg administered 24 hrs post challenge relative to control; format: functional
P388 [20] = assay: Antitumor activity against mouse P388 cells allografted in BDF1 mouse assessed as mouse survival at 1.56 mg/kg administered 24 hrs post challenge relative to control; format: functional, organism-based; design: dose 1.56 mg/kg
P388 [21] = assay: Antitumor activity against mouse P388 cells allografted in BDF1 mouse assessed as mouse survival at 12.5 mg/kg administered 24 hrs post challenge relative to control; format: functional, organism-based; design: dose 12.5 mg/kg
P388 [22] = assay: Antitumor activity against mouse P388 cells allografted in BDF1 mouse assessed as mouse survival at 25 mg/kg administered 24 hrs post challenge relative to control; format: functional, organism-based; design: dose 25 mg/kg
Mus musculus [23] = assay: Toxicity in mouse P388 cells allografted BDF1 mouse assessed as body weight difference at 3.13 mg/kg administered 24 hrs post challenge relative to control; format: organism-based; design: dose 3.13 mg/kg; conditions: in vivo
Mus musculus [24] = assay: Toxicity in mouse P388 cells allografted BDF1 mouse assessed as body weight difference at 6.25 mg/kg administered 24 hrs post challenge relative to control; format: organism-based; design: dose 6.25 mg/kg; conditions: in vivo
P388 [25] = assay: Antitumor activity against mouse P388 cells allografted in BDF1 mouse assessed as increase in survival time at 1.56 mg/kg administered 24 hrs post challenge relative to control; format: functional
P388 [26] = assay: Antitumor activity against mouse P388 cells allografted in BDF1 mouse assessed as mouse survival at 0.78 mg/kg administered 24 hrs post challenge relative to control; format: functional, organism-based; design: dose 0.78 mg/kg
B16 [27] = assay: Antitumor activity against mouse B16 cells allografted in BDF1 mouse assessed as increase in survival time at 8 mg/kg administered 24 hrs post challenge relative to control; format: functional
P388 [28] = assay: Antitumor activity against mouse P388 cells allografted in BDF1 mouse assessed as mouse survival at 6.25 mg/kg administered 24 hrs post challenge relative to control; format: functional, organism-based; design: dose 6.25 mg/kg
B16 [29] = assay: Antitumor activity against mouse B16 cells allografted in BDF1 mouse assessed as increase in survival time at 4 mg/kg administered 24 hrs post challenge relative to control; format: functional
P388 [30] = assay: Antitumor activity against mouse P388 cells allografted in BDF1 mouse assessed as increase in survival time at 12.5 mg/kg administered 24 hrs post challenge relative to control; format: functional
Mus musculus [31] = assay: Toxicity in mouse P388 cells allografted BDF1 mouse assessed as body weight difference at 1.56 mg/kg administered 24 hrs post challenge relative to control; format: organism-based; design: dose 1.56 mg/kg; conditions: in vivo
Mus musculus [32] = assay: Toxicity in mouse P388 cells allografted BDF1 mouse assessed as body weight difference at 12.5 mg/kg administered 24 hrs post challenge relative to control; format: organism-based; design: dose 12.5 mg/kg; conditions: in vivo
B16 [33] = assay: Antitumor activity against mouse B16 cells allografted in BDF1 mouse assessed as increase in survival time at 16 mg/kg administered 24 hrs post challenge relative to control; format: functional
P388 [34] = assay: Antitumor activity against mouse P388 cells allografted in BDF1 mouse assessed as increase in survival time at 25 mg/kg administered 24 hrs post challenge relative to control; format: functional
Mus musculus [35] = assay: Toxicity in mouse P388 cells allografted BDF1 mouse assessed as body weight difference at 25 mg/kg administered 24 hrs post challenge relative to control; format: organism-based; design: dose 25 mg/kg; conditions: in vivo
Mus musculus [36] = assay: Toxicity in mouse P388 cells allografted BDF1 mouse assessed as body weight difference at 0.78 mg/kg administered 24 hrs post challenge relative to control; format: organism-based; design: dose 0.78 mg/kg; conditions: in vivo

Q: How did the Activity (Mus musculus [1]) turn out when `O=C1c2ccccc2C(=O)c2c(NCCNCCO)ccc(NCCNCCO)c21` [AMETANTRONE] was run?
A: -2 g

Q: And the Activity (Mus musculus [2])?
A: 0 g

Q: And the Activity (Mus musculus [3])?
A: -5.9 g

Q: What about the Activity (Mus musculus [4]) of the same compound?
A: -3.9 g

Q: And the T/C (L1210 [5])?
A: 227%

Q: And the T/C (P388 [6])?
A: 275%

Q: And the Activity (P388 [7])?
A: Active

Q: And the T/C (P388 [8])?
A: 81%

Q: What about the T/C (L1210 [9]) of the same compound?
A: 272%

Q: And the T/C (P388 [10])?
A: 276%

Q: What about the Activity (P388 [11]) of the same compound?
A: Active

Q: And the T/C (P388 [12])?
A: 275%

Q: And the T/C (L1210 [13])?
A: 156%

Q: And the Activity (P388 [14])?
A: Active

Q: What about the Activity (P388 [15]) of the same compound?
A: Active

Q: `NCCNc1ccc(NCCN)c2c1C(=O)c1ccccc1C2=O` was tested. Which Activity (P388 [16]) did it give?
A: Active

Q: And the T/C (P388 [17])?
A: 107%

Q: What about the T/C (P388 [18]) of the same compound?
A: 150%

Q: And the T/C (P388 [19])?
A: 159%

Q: And the Activity (P388 [20])?
A: Active

Q: And the Activity (P388 [21])?
A: Active

Q: And the Activity (P388 [22])?
A: Active

Q: And the Activity (Mus musculus [23])?
A: -0.9 g

Q: And the Activity (Mus musculus [24])?
A: -1.1 g

Q: What about the T/C (P388 [25]) of the same compound?
A: 137%

Q: And the Activity (P388 [26])?
A: Active

Q: And the T/C (B16 [27])?
A: 280%

Q: What about the Activity (P388 [28]) of the same compound?
A: Active

Q: What about the T/C (B16 [29]) of the same compound?
A: 280%

Q: And the T/C (P388 [30])?
A: 174%

Q: What about the Activity (Mus musculus [31]) of the same compound?
A: -1.6 g

Q: And the Activity (Mus musculus [32])?
A: -1.1 g

Q: What about the T/C (B16 [33]) of the same compound?
A: 281%

Q: What about the T/C (P388 [34]) of the same compound?
A: 215%

Q: What about the Activity (Mus musculus [35]) of the same compound?
A: -2.6 g

Q: And the Activity (Mus musculus [36])?
A: -1.3 g
